Source: ChEMBL document CHEMBL3352629, “Hydroxamic acid based histone deacetylase inhibitors with confirmed activity against the malaria parasite” (Bioorg Med Chem Lett, 2015)
Activity calls are given as the source filed them. The rule behind the calls is not given here. Square brackets hold non-standard residues; d marks the D form. Peptide text beside a SMILES is read from it. * marks the point of attachment. Asu = N[C@@H](CCCCCC(=O)O)C(=O)O; pGlu = O=C1CC[C@@H](C(=O)O)N1; NHPh = c1ccc(N*)cc1; NHOH = ON*

What was measured:
[1] = test system: Giardia intestinalis; assay: Antiprotozoan activity against Giardia lamblia G1; format: functional, organism-based; conditions: Giardia duodenalis
[2] = test system: L6; assay: Cytotoxicity against rat L6 cells; format: ADME, cell-based
[3] = test system: Trypanosoma cruzi; assay: Antiprotozoan activity against Trypanosoma cruzi Tulahuen C4 amastigotes; format: functional, organism-based
[4] = test system: Plasmodium falciparum; assay: Antiprotozoan activity against Plasmodium falciparum infected in mouse assessed as reduction in parasite growth at 50 mg/kg, ip QD for 4 days; format: functional; conditions: 96 h, route intraperitoneal
[5] = test system: Trypanosoma brucei rhodesiense; assay: Antiprotozoan activity against Trypanosoma brucei rhodesiense STIB 900 trypomastigotes; format: functional, organism-based
[6] = test system: Plasmodium falciparum; assay: Antiprotozoan activity against Plasmodium falciparum NF54 IEF forms; format: functional, organism-based
[7] = test system: Leishmania donovani; assay: Antiprotozoan activity against Leishmania donovani MHOM- ET-67/L82 amastigotes; format: functional, organism-based
[8] = test system: Leishmania donovani; assay: Antiprotozoan activity against Leishmania donovani MHOM- ET-67/L82 amastigotes at 1 uM; format: functional, organism-based
[9] = test system: NCI-H460; assay: Cytotoxicity against human NCI-H460 cells; format: functional, cell-based
[10] = target: T1, Histone deacetylase 11 (Homo sapiens, UniProt Q96DB2); assay: Inhibition of human HDAC11 using RHKK(Ac) as substrate by fluorimetric analysis
T1 sequence (Q96DB2 whole entry): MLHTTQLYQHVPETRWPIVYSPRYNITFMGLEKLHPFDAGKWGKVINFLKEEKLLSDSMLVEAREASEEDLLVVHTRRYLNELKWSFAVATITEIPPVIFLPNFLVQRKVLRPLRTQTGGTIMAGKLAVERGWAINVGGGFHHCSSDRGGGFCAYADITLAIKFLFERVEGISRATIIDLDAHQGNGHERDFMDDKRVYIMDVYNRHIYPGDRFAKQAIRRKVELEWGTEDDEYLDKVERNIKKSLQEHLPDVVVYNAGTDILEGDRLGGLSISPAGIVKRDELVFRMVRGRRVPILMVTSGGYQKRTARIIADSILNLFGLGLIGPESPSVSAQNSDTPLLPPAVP

[11] = target: Histone deacetylase 1 (Homo sapiens, UniProt Q13547); assay: Inhibition of human HDAC1 using RHKK(Ac) as substrate by fluorimetric analysis
[12] = target: Histone deacetylase 2 (Homo sapiens, UniProt Q92769); assay: Inhibition of human HDAC2 using RHKK(Ac) as substrate by fluorimetric analysis
[13] = target: T2, Histone deacetylase 8 (Homo sapiens, UniProt Q9BY41); assay: Inhibition of human HDAC8 using RHK(Ac)K(Ac) as substrate by fluorimetric analysis
T2 sequence (Q9BY41 whole entry): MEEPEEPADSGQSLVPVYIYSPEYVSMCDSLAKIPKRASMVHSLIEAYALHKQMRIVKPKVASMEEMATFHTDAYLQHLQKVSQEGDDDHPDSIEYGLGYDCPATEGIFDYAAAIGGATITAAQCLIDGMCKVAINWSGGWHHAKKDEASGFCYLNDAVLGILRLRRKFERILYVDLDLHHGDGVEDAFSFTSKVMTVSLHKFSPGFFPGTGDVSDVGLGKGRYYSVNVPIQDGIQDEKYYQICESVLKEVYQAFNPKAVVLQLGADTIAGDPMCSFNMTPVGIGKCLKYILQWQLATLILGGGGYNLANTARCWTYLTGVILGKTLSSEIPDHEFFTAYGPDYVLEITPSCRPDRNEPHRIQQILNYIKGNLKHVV

[14] = target: T3, Polyamine deacetylase HDAC10 (Homo sapiens, UniProt Q969S8); assay: Inhibition of human HDAC10 using RHKK(Ac) as substrate by fluorimetric analysis
T3 sequence (Q969S8 whole entry): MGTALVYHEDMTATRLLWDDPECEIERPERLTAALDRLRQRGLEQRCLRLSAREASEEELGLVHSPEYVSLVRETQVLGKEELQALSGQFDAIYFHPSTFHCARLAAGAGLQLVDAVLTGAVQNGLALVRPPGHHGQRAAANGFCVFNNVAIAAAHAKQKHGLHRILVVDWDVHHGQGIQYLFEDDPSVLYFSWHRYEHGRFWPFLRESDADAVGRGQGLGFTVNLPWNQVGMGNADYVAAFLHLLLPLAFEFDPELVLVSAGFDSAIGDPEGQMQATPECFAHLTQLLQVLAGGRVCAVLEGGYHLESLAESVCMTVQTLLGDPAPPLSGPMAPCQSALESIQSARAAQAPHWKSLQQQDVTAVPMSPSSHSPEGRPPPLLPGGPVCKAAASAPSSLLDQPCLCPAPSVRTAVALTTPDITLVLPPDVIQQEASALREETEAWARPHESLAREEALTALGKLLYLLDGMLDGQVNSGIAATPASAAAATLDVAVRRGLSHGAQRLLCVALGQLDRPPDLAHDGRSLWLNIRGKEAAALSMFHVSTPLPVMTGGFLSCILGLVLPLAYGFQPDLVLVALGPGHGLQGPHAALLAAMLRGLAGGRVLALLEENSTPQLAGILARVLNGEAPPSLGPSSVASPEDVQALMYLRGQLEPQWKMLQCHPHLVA

[15] = target: T4, Protein deacetylase HDAC6 (Homo sapiens, UniProt Q9UBN7); assay: Inhibition of human HDAC6 using RHKK(Ac) as substrate by fluorimetric analysis
T4 sequence (Q9UBN7 whole entry): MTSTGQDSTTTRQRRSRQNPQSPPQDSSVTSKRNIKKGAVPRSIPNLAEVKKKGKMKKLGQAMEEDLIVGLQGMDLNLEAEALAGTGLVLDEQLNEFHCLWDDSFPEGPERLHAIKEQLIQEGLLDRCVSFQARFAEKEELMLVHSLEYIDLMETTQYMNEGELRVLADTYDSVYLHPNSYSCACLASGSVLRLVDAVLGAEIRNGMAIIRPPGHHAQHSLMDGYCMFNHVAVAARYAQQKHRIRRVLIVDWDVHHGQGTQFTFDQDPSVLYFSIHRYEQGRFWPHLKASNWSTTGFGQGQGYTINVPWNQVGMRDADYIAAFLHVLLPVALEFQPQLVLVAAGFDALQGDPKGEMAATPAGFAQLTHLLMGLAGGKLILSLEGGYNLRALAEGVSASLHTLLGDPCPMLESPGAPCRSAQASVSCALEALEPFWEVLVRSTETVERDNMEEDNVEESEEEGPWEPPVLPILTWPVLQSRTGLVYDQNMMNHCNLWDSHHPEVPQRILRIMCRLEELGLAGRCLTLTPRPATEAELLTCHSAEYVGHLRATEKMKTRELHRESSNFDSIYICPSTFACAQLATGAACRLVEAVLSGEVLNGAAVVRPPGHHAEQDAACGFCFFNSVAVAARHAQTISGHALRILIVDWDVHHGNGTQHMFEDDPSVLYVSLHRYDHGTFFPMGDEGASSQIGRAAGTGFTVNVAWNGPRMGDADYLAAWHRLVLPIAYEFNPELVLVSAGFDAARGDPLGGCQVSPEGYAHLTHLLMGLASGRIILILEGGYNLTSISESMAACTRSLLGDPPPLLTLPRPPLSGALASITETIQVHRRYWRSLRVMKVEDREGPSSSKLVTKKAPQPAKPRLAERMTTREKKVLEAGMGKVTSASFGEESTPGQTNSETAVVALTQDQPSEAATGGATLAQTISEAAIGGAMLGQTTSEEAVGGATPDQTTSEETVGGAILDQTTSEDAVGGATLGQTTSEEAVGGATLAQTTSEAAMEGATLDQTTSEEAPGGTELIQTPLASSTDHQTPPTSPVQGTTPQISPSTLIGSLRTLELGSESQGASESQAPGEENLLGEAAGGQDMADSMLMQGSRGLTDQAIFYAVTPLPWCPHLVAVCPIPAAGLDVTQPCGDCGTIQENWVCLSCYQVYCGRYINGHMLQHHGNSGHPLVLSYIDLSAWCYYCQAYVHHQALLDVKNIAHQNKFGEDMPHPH

[16] = target: Histone deacetylase 3 (Homo sapiens, UniProt O15379); assay: Inhibition of human HDAC3 using RHKK(Ac) as substrate by fluorimetric analysis
[17] = test system: Plasmodium falciparum; assay: Antiprotozoan activity against Plasmodium falciparum infected in mouse assessed as mouse survival at 50 mg/kg, ip QD for 4 days; format: functional; conditions: route intraperitoneal
[18] = Leishmania donovani, MHOM- ET-67/L82, read-out: IC50

Sequence of Histone deacetylase 2 (Q92769 whole entry): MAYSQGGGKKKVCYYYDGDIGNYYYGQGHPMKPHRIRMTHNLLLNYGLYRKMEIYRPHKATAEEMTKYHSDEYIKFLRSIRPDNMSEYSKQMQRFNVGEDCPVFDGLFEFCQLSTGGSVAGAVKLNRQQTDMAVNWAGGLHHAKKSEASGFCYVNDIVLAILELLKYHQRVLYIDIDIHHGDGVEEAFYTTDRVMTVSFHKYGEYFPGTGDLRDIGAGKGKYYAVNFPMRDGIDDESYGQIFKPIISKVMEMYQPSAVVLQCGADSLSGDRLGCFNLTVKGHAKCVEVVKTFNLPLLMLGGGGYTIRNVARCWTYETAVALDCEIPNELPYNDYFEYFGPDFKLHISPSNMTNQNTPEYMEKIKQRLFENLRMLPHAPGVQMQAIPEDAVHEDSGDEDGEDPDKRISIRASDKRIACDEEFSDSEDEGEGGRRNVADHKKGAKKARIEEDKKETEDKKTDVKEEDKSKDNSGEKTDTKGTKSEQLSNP
Sequence of Histone deacetylase 1 (Q13547 whole entry): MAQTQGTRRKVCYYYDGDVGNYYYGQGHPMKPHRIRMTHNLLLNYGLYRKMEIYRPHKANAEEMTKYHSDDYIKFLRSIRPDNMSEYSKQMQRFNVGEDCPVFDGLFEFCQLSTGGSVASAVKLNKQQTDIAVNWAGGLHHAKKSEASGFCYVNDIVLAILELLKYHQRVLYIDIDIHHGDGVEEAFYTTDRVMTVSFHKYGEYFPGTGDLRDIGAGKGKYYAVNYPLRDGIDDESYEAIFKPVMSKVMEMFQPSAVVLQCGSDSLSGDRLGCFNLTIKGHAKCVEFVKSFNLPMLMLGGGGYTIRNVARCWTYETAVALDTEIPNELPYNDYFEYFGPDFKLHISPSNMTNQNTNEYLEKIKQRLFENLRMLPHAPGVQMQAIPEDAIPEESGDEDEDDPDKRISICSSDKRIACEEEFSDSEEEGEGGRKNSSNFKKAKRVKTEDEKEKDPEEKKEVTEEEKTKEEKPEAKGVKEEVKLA
Sequence of Histone deacetylase 3 (O15379 whole entry): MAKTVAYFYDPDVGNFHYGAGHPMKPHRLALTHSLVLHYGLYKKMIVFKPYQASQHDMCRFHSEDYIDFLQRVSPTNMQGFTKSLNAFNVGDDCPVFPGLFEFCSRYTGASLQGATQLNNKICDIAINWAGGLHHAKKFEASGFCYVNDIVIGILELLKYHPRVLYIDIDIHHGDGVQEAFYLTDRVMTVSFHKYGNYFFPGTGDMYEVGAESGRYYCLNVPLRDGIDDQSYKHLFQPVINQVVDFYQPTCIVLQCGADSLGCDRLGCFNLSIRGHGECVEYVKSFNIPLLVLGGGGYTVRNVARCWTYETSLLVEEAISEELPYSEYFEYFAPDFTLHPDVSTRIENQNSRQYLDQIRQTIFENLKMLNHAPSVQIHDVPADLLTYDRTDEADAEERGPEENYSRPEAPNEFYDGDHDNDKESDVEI

## O=C(CCCCC[C@H](NC(=O)[C@H]1CCC(=O)N1)C(=O)Nc1cccc(C(F)(F)F)c1)NO
[1]
  IC50: 4270 nM
[2]
  IC50: 638 nM
[3]
  IC50: 972 nM
[4]
  inhibition in vivo at 50 mg/kg: 63.2%
[5]
  IC50: 4160 nM
[6]
  IC50: 3 nM

## O=C1CC[C@H](C(=O)N[C@@H](CCCCCS)C(=O)Nc2cccc(C(F)(F)F)c2)N1
[1]
  IC50: 64800 nM
[2]
  IC50: 2670 nM
[3]
  IC50: 19100 nM
[7]; [18]
  IC50: > 3000 nM
[5]
  IC50: 4750 nM
[6]
  IC50: 3260 nM

## O=C(CCCCCCC(=O)Nc1ccccc1)NO [VORINOSTAT]
[8]
  Activity: inactive
[3]
  IC50: 10100 nM
[6]
  IC50: 25 nM

## O=C(CCCCC[C@H](NC(=O)[C@@H]1CCC(=O)N1)C(=O)Nc1ccccc1)NO ([pGlu]-[Asu](NHOH)-NHPh)
[9]
  IC50: 2200 nM
[10]
  IC50: 13 nM
[11]
  IC50: 34 nM
[1]
  IC50: 10700 nM
[2]
  IC50: 75100 nM
[3]
  IC50: 48400 nM
[4]
  inhibition in vivo at 50 mg/kg: 87.5%
[12]
  IC50: 89 nM
[13]
  IC50: 93 nM
[14]
  IC50: 113 nM
[15]
  IC50: 3 nM
[5]
  IC50: 20000 nM
[16]
  IC50: 62 nM
[6]
  IC50: 19 nM

## O=C(Cn1ccnc1[N+](=O)[O-])NCc1ccccc1 [BENZNIDAZOLE]
[3]
  IC50: 2130 nM

## CCCCCCCCCCCCCCCCOP(=O)([O-])OCC[N+](C)(C)C [MILTEFOSINE]
[7]; [18]
  IC50: 3150 nM

## Cc1cccc(NC(=O)[C@H](CCCCCC(=O)NO)NC(=O)[C@H]2CCC(=O)N2)c1
[10]
  IC50: 15 nM
[1]
  IC50: 4640 nM
[2]
  IC50: 1230 nM
[3]
  IC50: 849 nM
[4]
  inhibition in vivo at 50 mg/kg: 33.8%
[5]
  IC50: 5520 nM
[6]
  IC50: 6 nM

## CC(=O)SCCCCC[C@H](NC(=O)[C@H]1CCC(=O)N1)C(=O)Nc1cccc(C(F)(F)F)c1
[8]
  Activity: inactive
[1]
  IC50: 40900 nM
[2]
  IC50: 91 nM
[3]
  IC50: 3980 nM
[7]
  IC50: Not Active
[5]
  IC50: 2380 nM
[6]
  IC50: 3240 nM

## Cc1ncc([N+](=O)[O-])n1CCO [METRONIDAZOLE]
[1]
  IC50: 580 nM

## C[C@@H]1CC[C@H]2[C@@H](C)C(=O)O[C@@H]3O[C@@]4(C)CC[C@@H]1[C@]32OO4 [ARTEMISININ]
[17]
  Survival: >30 days
[4]
  inhibition in vivo at 50 mg/kg: 99.9%

## O=C1CC[C@H](C(=O)N[C@@H](CCCCCS)C(=O)Nc2ccccc2)N1
[10]
  IC50: 14 nM
[11]
  IC50: 13 nM
[1]
  IC50: 12300 nM
[2]
  IC50: 5250 nM
[3]
  IC50: 25800 nM
[12]
  IC50: 78 nM
[13]
  IC50: 281 nM
[14]
  IC50: 11 nM
[15]
  IC50: 3 nM
[7]; [18]
  IC50: > 10000 nM
[5]
  IC50: 3230 nM
[16]
  IC50: 5 nM
[6]
  IC50: 9660 nM

## COc1cc([C@@H]2c3cc4c(cc3[C@H](O)[C@H]3COC(=O)[C@H]23)OCO4)cc(OC)c1OC [PODOFILOX]
[2]
  IC50: 19 nM

## CC(=O)SCCCCC[C@H](NC(=O)[C@H]1CCC(=O)N1)C(=O)Nc1ccccc1
[9]
  IC50: 66 nM
[8]
  Activity: inactive
[1]
  IC50: 8110 nM
[2]
  IC50: 189 nM
[3]
  IC50: 2100 nM
[7]
  IC50: Not Active
[5]
  IC50: 2510 nM
[6]
  IC50: 6570 nM

## C[C@H]1[C@@H](O)O[C@@H]2O[C@@]3(C)CC[C@H]4[C@H](C)CC[C@@H]1[C@@]24OO3 [ARTENIMOL]
[4]
  inhibition in vivo at 50 mg/kg: 99.8%

## O=C(CCCCC[C@H](NC(=O)[C@@H]1CC(=O)N1)C(=O)Nc1ccccc1)NO
[9]
  IC50: 5400 nM
[10]
  IC50: 37 nM
[11]
  IC50: 59 nM
[1]
  IC50: 12800 nM
[2]
  IC50: 7460 nM
[3]
  IC50: 33000 nM
[12]
  IC50: 143 nM
[13]
  IC50: 137 nM
[14]
  IC50: 125 nM
[15]
  IC50: 6 nM
[5]
  IC50: 6040 nM
[16]
  IC50: 88 nM
[6]
  IC50: 23 nM
